SMILES strings stand for the structures.

The target in this test is Muscarinic acetylcholine receptor (Cavia porcellus, UniProt Q8VH26). Put plainly: Muscarinic acetylcholine receptor M3 agonistic/antagonistic activity in guinea pig ileum.
Chain of Muscarinic acetylcholine receptor (Q8VH26 whole entry): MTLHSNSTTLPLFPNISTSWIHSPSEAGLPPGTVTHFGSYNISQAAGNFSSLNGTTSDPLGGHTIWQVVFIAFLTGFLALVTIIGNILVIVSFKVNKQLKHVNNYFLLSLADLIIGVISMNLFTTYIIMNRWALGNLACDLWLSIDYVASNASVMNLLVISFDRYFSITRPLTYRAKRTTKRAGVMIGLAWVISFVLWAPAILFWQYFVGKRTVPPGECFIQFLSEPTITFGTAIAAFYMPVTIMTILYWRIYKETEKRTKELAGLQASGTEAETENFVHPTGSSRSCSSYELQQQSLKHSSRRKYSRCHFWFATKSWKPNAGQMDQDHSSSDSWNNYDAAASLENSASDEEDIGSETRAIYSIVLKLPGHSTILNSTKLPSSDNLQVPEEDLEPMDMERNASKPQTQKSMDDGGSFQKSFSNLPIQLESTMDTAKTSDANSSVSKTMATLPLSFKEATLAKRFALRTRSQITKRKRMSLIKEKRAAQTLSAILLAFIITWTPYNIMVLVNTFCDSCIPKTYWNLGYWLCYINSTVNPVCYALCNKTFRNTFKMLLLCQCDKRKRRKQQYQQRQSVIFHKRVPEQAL
In general, EC50 refers to the midpoint of the concentration-response curve. Regarding `CC(C#CCN1CCCC1)N1CCCC1=O` (stereo not drawn), the concentration giving a half-maximal response (EC50) was less than 1 nM. Under `CC(C#CCN1CCCC1)N1CCNC1=O` (stereo not drawn) stands less than 1 nM; under `CC(C#CCN1CCCC1)N(C)C(N)=O` (stereo not drawn), less than 1 nM.
